The record followed here is US9505834B2, “Methods for controlling the galactosylation profile of recombinantly-expressed proteins” (AbbVie Inc., priority 2011, dated 2016).

Where two headings read alike, the source gives them in different places.

Assay [1] concerns adalimumab-producing CHO cell line #3. Nature of the assay: Example 5 culture growth & productivity. Type of assay: cell-based, Chinese Hamster. The note with it: 30 mM galactose alone. As for the experimental part: (§1) For all studies with CHO cell lines described throughout this invention, samples were collected daily and measured for cell density and viability using a Cedex cell counter. Retention samples for titer analysis via Poros A method were collected by centrifugation at 12,000 RPM for 5 min when the culture viability began declining. The cultures were harvested by collecting 125 mL aliquots and centrifuging at 3,000 RPM for 30 min when culture viability was near or below 50%. All supernatants were stored at −80° C. until analysis.
Growth and production media for the adalimumab-producing CHO cell line #3 were prepared using the proprietary Life Technologies Gibco chemically defined media, GIA-1.
Upon thaw, cells were expanded in Corning vented non-baffled shake flasks maintained on orbital shakers at 140 RPM, and in 10 L cell bags (2 L working volume) maintained at 25 RPM, 7° angle, and 0.25 SLPM airflow in a dry incubator at 36° C. and 5% CO2. Production cultures were initiated in 3 L bioreactors (1.4 L initial working volume) at 36° C., 30% dissolved oxygen, 200 RPM, and pH 6.9±0.2. A fixed split ratio of cells to media of 1:6.7 was utilized to initiate the production stage cultures. A temperature shift was performed when the culture VCD reached a value higher than 5×10^6 cells/mL. […]

Assay [2] concerns CHO cell line producing mAb #2. As for the experimental part: as §1
Growth and production media for the mAb #2 producing CHO cell line were prepared using the proprietary Life Technologies Gibco chemically defined media, GIA-1.
Upon thaw, cells were expanded in Corning vented non-baffled shake flasks maintained on orbital shakers at 140 RPM, and in 10 L cell bags (2 L working volume) maintained at 25 RPM, 7° angle, 0.25 SLPM airflow in a dry incubator at 36° C. and 5% CO2. Production cultures were initiated in 3 L bioreactors (1.5 L initial working volume) at 36° C., 25% dissolved oxygen, 200 RPM, and pH 7.0. The chemically-defined feed from Life Technologies Gibco JCL-5 was added as follows: 3% (v/v)—day 3, 5%—day 5, 7%—day 7, 10%—day 9, and 10%—day 11. […] Bioreactors were harvested at viability of approximately 70% or below or on production day 15, whichever condition occurred first. […]

With `O=C[C@H](O)[C@@H](O)[C@@H](O)[C@H](O)CO` [galactose, D(+)Galactose], the growth profile entry in assay [1] was “grew slower and reached a lower peak VCD”.

For the compound “Manganese (II) Chloride [manganese chloride]”, the figures for the growth profile result in assay [2] (25 μM manganese chloride alone) and in assay [2] (manganese chloride 50 μM or 75 μM) were “grew slower after production day 7” and “growth profiles comparable to the control culture”, respectively.
